Test [1] is described as follows: Displacement of [3H]alpha-BGT from nAChR in Apis mellifera (honeybee) head homogenates. It counts as tissue-based. (Displacement assays read how much labelled ligand stays bound in the presence of the test substance.)
Test [2] is described as follows: Displacement of [3H]PCP from nAChR in Apis mellifera (honeybee0 head homogenates. Format: tissue-based.
A further test concerns Apis mellifera. The experiment in a line: Displacement of [3H]PCP from nAChR in Apis mellifera (honeybee) head homogenates at 1000 uM. Format: tissue-based.
Test [3] has as its system Musca domestica. The experiment in a line: Insecticidal activity against 3 to 5 day old female Musca domestica (house fly) assessed as compound level causing insect mortality per female applied through intrathoracic injection measured after 24 hr. Format: functional.
For test [4], the system named is Musca domestica. The test is described as follows: Insecticidal activity against 3 to 5 day old female Musca domestica (house fly) assessed as induction of convulsions and paralysis applied through intrathoracic injection measured after 24 hr. Format: functional, organism-based.
In test [5] the test system is Musca domestica. The experiment in a line: Insecticidal activity against 3 to 5 day old female Musca domestica (house fly) assessed as compound level causing insect mortality per female applied topically on notum measured after 24 hr. It counts as functional.
The test system of test [6] is Musca domestica. The test is described as follows: Insecticidal activity against 3 to 5 day old female Musca domestica (house fly) assessed as induction of leg tremors at >2 ug/female fly applied topically on notum measured after 24 hr. Format: functional, organism-based.
In test [7] the test system is Musca domestica. The test is described as follows: Insecticidal activity against 3 to 5 day old female Musca domestica (house fly) assessed as induction of anesthetic effect applied topically on notum measured after 24 hr. Format: functional, organism-based.

Each structure is given as a SMILES string. Activity calls are given as the source filed them. The calls are words filed in the database; no cut-off is given here.

With `O=[N+]([O-])/C=C1\NCCN1Cc1ccc(Cl)nc1`, the values for the IC50 in test [1] and in test [2] were 0.026 µM and 953 µM, respectively.

As for `COc1cc2c3cc1Oc1cc(ccc1O)C[C@@H]1c4c(cc(OC)c(O)c4Oc4ccc(cc4)C[C@@H]3N(C)CC2)CC[N+]1(C)C`, the half-maximal inhibitory concentration (IC50) in test [1] is 3.35 µM; in test [2] it was 0.636 µM.

As to `CSC(C)N1CCN/C1=C\[N+](=O)[O-]` (stereo unspecified), the IC50 worked out at 249 µM in test [1] and 336 µM in test [2].

On to `O=[N+]([O-])C=C1NCCCS1`, for which the figures for the IC50 in test [1] and in test [2] were 1360 µM and 231 µM, respectively.

Consider `C/C(=N\C#N)N(C)Cc1ccc(Cl)nc1` [ACETAMIPRID], for which the results for the half-inhibitory concentration (IC50) in test [1] and in test [2] were 8.83 µM and 277 µM, respectively.

Take `C[N+](C)(C)CCOC(N)=O` [CARBACHOL]: the IC50 is 90.1 µM in test [1] and > 1000 µM in test [2]. Besides, the inhibition in the test on Apis mellifera stood at 8.1%.

As for `CN(C)CCCN1c2ccccc2Sc2ccc(Cl)cc21` [CHLORPROMAZINE], the IC50 came to 151 µM in test [1] and 5.8 µM in test [2].

For `CCC[C@H]1CCCCN1` [CONIINE], the IC50 was 166 µM in test [1] and 5.56 µM in test [2].

In the case of `O=c1cccc2n1C[C@@H]1CNC[C@H]2C1` [CYTISINICLINE], the IC50 in test [1] is 0.267 µM; in test [2], > 1000 µM. Further, the inhibition in the test on Apis mellifera was 12.6%.

With `C[N+]1(C)CCN(c2ccccc2)CC1` [DIMETHYLPHENYLPIPERAZINIUM IODIDE], the IC50 stood at 7.35 µM in test [1] and 385 µM in test [2].

In the case of `c1cncc(C2CCCCN2)c1` (stereo not drawn) [DL-ANABASINE], the figures for the IC50 in test [1] and in test [2] were 1.98 µM and 4.99 µM, respectively.

On to `O=[N+]([O-])/N=C1\NCCN1Cc1ccc(Cl)nc1` [IMIDACLOPRID], for which the IC50 came to 1.95 µM in test [1] and 386 µM in test [2]. Also, in the test on Musca domestica [3], the LD50 turned out to be 0.553 µg. Further, the outcome in the test with Musca domestica [4] was Active.

For the compound `CNC1(c2ccccc2Cl)CCCCC1=O` (stereo unspecified) [KETAMINE], the values for the IC50 in test [1] and in test [2] were 237 µM and 83.2 µM, respectively.

With `CN1[C@@H](CC(=O)c2ccccc2)CCC[C@H]1C[C@H](O)c1ccccc1` [LOBELINE], the IC50 in test [1] is 4.6 µM; in test [2], 158 µM.

Turning to `CNC1(C)C2CCC(C2)C1(C)C` (stereo unspecified) [MECAMYLAMINE], the IC50 came out at 346 µM in test [1] and 8.98 µM in test [2].

Turning to `CN(C)C1CSSC1` [NEREISTOXIN], the half-inhibitory concentration (IC50) in test [1] came to 228 µM; in test [2] it was 30.7 µM. Moreover, in the test with Musca domestica [5], the LD50 was found to be 0.49 µg. Further, the result in the test with Musca domestica [6] and in the test with Musca domestica [7] was Active.

In the case of `CN1CCC[C@H]1c1cccnc1` [NICOTINE], the IC50 in test [1] came to 1.55 µM; in test [2], 1.14 µM. Also, in the test with Musca domestica [5], the LD50 was found to be 14.8 µg.

For the compound `CCN(Cc1ccc(Cl)nc1)/C(=C/[N+](=O)[O-])NC` [NITENPYRAM], the IC50 was determined as 61.3 µM in test [1] and 27.6 µM in test [2].

Consider `c1ccc(C2(N3CCCCC3)CCCCC2)cc1` [PHENCYCLIDINE], for which the values for the IC50 in test [1] and in test [2] were 2.55 µM and 0.029 µM, respectively. In addition, the LD50 with Musca domestica [5] was 18.4 µg. Further, the result in the test on Musca domestica [7] was Active.

Take `CN1CCC[C@@H]1c1cccnc1` [R-NICOTINE]: the IC50 worked out at 22.1 µM in test [1] and 35 µM in test [2].

Regarding `c1csc(C2(N3CCCCC3)CCCCC2)c1` [TENOCYCLIDINE], the IC50 in test [1] was 1.38 µM; in test [2] it was 0.082 µM. In addition, the LD50 in the test with Musca domestica [5] is 25 µg. In addition, the result with Musca domestica [7] was Active.

Take `O=C1N(Cc2ccccc2)C2C[S+]3CCCC3C2N1Cc1ccccc1` (stereo unspecified) [TRIMETHAPHAN CAMSYLATE]: the IC50 came out at 0.798 µM in test [1] and 440 µM in test [2].

One may read the IC50 as the concentration that inhibits the measured activity by half. Lower therefore signals greater potency in that assay. As a reminder, the inhibition is the drop in the measured response relative to a control, in per cent. A higher inhibition goes with a response far below the control.

Source of the values: ChEMBL document CHEMBL3045508, “Pharmacological Characteristics of Insect Nicotinic Acetyicholine Receptor with Its Ion Channel and the Comparison of the Effect of Nicotinoids and Neonicotinoids” (J Pestic Sci, 1995).
